Laboratory results taken from the supplement of paper PMC13207355.

How the values were obtained:
Conditions in all cases: exposure time: 72 h
E34 [1] = patient-derived glioblastoma stem cells of proneural subtype; test: phenotypic distance (Euclidean, principal components) from DMSO controls (arbitrary units); higher = stronger morphological change
E28 [2] = patient-derived glioblastoma stem cells of classical subtype; test: as above
E31 [3] = patient-derived glioblastoma stem cells of proneural subtype; test: as above
E21 [4] = patient-derived glioblastoma stem cells of mesenchymal subtype; test: as above
E57 [5] = patient-derived glioblastoma stem cells of mesenchymal subtype; test: as above
E13 [6] = patient-derived glioblastoma stem cells of classical subtype; test: as above
FT3469 [7] = normal neural stem cell line; test: as above
E34 [8] = test: surviving fraction (nuclei count normalised to DMSO); higher = more cells surviving (less toxic)
E28 [9] = test: as above
E31 [10] = test: as above
E21 [11] = test: as above
E57 [12] = test: as above
E13 [13] = test: as above
FT3469 [14] = test: as above
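Wherever phenotypic distance (Euclidean, principal components) from DMSO controls is given: cell Painting imaging in 384-well plates, CellProfiler features reduced to at least 20 principal components, Euclidean distance versus same-plate DMSO vehicle wells (0.1% v/v), median over six images per well.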
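Wherever surviving fraction (nuclei count normalised to DMSO) is given: nuclei counted by high-content imaging of Hoechst-stained cells in laminin-coated 384-well plates, relative to 0.1% DMSO vehicle wells, with staurosporine as cell-death control.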

CC(C)CC(=O)N[C@H](C(=O)N[C@H](C(=O)N[C@@H](CC(C)C)[C@@H](O)CC(=O)N[C@@H](C)C(=O)N[C@@H](CC(C)C)[C@@H](O)CC(=O)O)C(C)C)C(C)C [Pepstatin A]
Conditions | phenotypic distance | surviving fraction
E13 [6], 4.1 nM | 3.07 | –
E13 [6], 12.3 nM | 0.418 | –
E13 [6], 37 nM | 0.54 | –
E13 [6], 111.1 nM | 2.55 | –
E13 [6], 333.3 nM | 0.565 | –
E13 [6], 1000 nM | 1.06 | –
E13 [6], 3000 nM | 1.04 | –
E13 [13], 4.1 nM | – | 1.06
E13 [13], 12.3 nM | – | 1.08
E13 [13], 37 nM | – | 0.987
E13 [13], 111.1 nM | – | 0.969
E13 [13], 333.3 nM | – | 0.939
E13 [13], 1000 nM | – | 1.07
E13 [13], 3000 nM | – | 0.973
E21 [4], 4.1 nM | 0.741 | –
E21 [4], 12.3 nM | 0.806 | –
E21 [4], 37 nM | 0.616 | –
E21 [4], 111.1 nM | 0.484 | –
E21 [4], 333.3 nM | 0.724 | –
E21 [4], 1000 nM | 0.99 | –
E21 [4], 3000 nM | 0.905 | –
E21 [11], 4.1 nM | – | 1.08
E21 [11], 12.3 nM | – | 1.07
E21 [11], 37 nM | – | 1.01
E21 [11], 111.1 nM | – | 1.05
E21 [11], 333.3 nM | – | 0.985
E21 [11], 1000 nM | – | 0.986
E21 [11], 3000 nM | – | 0.943
E28 [2], 4.1 nM | 0.473 | –
E28 [2], 12.3 nM | 0.719 | –
E28 [2], 37 nM | 0.825 | –
E28 [2], 111.1 nM | 1.73 | –
E28 [2], 333.3 nM | 0.834 | –
E28 [2], 1000 nM | 1.64 | –
E28 [2], 3000 nM | 0.785 | –
E28 [9], 4.1 nM | – | 0.953
E28 [9], 12.3 nM | – | 1.07
E28 [9], 37 nM | – | 1.14
E28 [9], 111.1 nM | – | 1.15
E28 [9], 333.3 nM | – | 1.06
E28 [9], 1000 nM | – | 0.989
E28 [9], 3000 nM | – | 0.92
E31 [3], 4.1 nM | 0.911 | –
E31 [3], 12.3 nM | 0.626 | –
E31 [3], 37 nM | 0.894 | –
E31 [3], 111.1 nM | 0.552 | –
E31 [3], 333.3 nM | 0.816 | –
E31 [3], 1000 nM | 0.799 | –
E31 [3], 3000 nM | 0.946 | –
E31 [10], 4.1 nM | – | 0.988
E31 [10], 12.3 nM | – | 1.1
E31 [10], 37 nM | – | 1
E31 [10], 111.1 nM | – | 0.89
E31 [10], 333.3 nM | – | 0.936
E31 [10], 1000 nM | – | 0.912
E31 [10], 3000 nM | – | 0.801
E34 [1], 4.1 nM | 0.998 | –
E34 [1], 12.3 nM | 1.15 | –
E34 [1], 37 nM | 0.793 | –
E34 [1], 111.1 nM | 1.47 | –
E34 [1], 333.3 nM | 1.37 | –
E34 [1], 1000 nM | 1.44 | –
E34 [1], 3000 nM | 0.964 | –
E34 [8], 4.1 nM | – | 1.05
E34 [8], 12.3 nM | – | 1.18
E34 [8], 37 nM | – | 0.988
E34 [8], 111.1 nM | – | 1.19
E34 [8], 333.3 nM | – | 0.959
E34 [8], 1000 nM | – | 1.03
E34 [8], 3000 nM | – | 0.906
E57 [5], 4.1 nM | 0.859 | –
E57 [5], 12.3 nM | 0.774 | –
E57 [5], 37 nM | 0.554 | –
E57 [5], 111.1 nM | 0.499 | –
E57 [5], 333.3 nM | 1.2 | –
E57 [5], 1000 nM | 1.56 | –
E57 [5], 3000 nM | 1.57 | –
E57 [12], 4.1 nM | – | 1.04
E57 [12], 12.3 nM | – | 1.08
E57 [12], 37 nM | – | 1.01
E57 [12], 111.1 nM | – | 1.02
E57 [12], 333.3 nM | – | 1.11
E57 [12], 1000 nM | – | 0.978
E57 [12], 3000 nM | – | 0.901
FT3469 [7], 4.1 nM | 0.569 | –
FT3469 [7], 12.3 nM | 0.775 | –
FT3469 [7], 37 nM | 0.359 | –
FT3469 [7], 111.1 nM | 0.585 | –
FT3469 [7], 333.3 nM | 0.718 | –
FT3469 [7], 1000 nM | 1.15 | –
FT3469 [7], 3000 nM | 0.856 | –
FT3469 [14], 4.1 nM | – | 0.981
FT3469 [14], 12.3 nM | – | 1.14
FT3469 [14], 37 nM | – | 1.08
FT3469 [14], 111.1 nM | – | 1.05
FT3469 [14], 333.3 nM | – | 1.07
FT3469 [14], 1000 nM | – | 0.993
FT3469 [14], 3000 nM | – | 1.07

Cc1cc(Nc2cc(N3CCN(C)CC3)nc(Sc3ccc(NC(=O)C4CC4)cc3)n2)n[nH]1 [Tozasertib]
Conditions | phenotypic distance | surviving fraction
E13 [6], 4.1 nM | 1.12 | –
E13 [6], 12.3 nM | 0.667 | –
E13 [6], 37 nM | 1.66 | –
E13 [6], 111.1 nM | 4.34 | –
E13 [6], 333.3 nM | 4.49 | –
E13 [6], 1000 nM | 4.52 | –
E13 [6], 3000 nM | 4.41 | –
E13 [13], 4.1 nM | – | 0.866
E13 [13], 12.3 nM | – | 0.951
E13 [13], 37 nM | – | 0.797
E13 [13], 111.1 nM | – | 0.519
E13 [13], 333.3 nM | – | 0.467
E13 [13], 1000 nM | – | 0.391
E13 [13], 3000 nM | – | 0.413
E21 [4], 4.1 nM | 1.38 | –
E21 [4], 12.3 nM | 0.727 | –
E21 [4], 37 nM | 1.05 | –
E21 [4], 111.1 nM | 2.02 | –
E21 [4], 333.3 nM | 5.67 | –
E21 [4], 1000 nM | 6.71 | –
E21 [4], 3000 nM | 6.04 | –
E21 [11], 4.1 nM | – | 0.847
E21 [11], 12.3 nM | – | 0.898
E21 [11], 37 nM | – | 0.798
E21 [11], 111.1 nM | – | 0.743
E21 [11], 333.3 nM | – | 0.288
E21 [11], 1000 nM | – | 0.215
E21 [11], 3000 nM | – | 0.224
E28 [2], 4.1 nM | 0.827 | –
E28 [2], 12.3 nM | 1.02 | –
E28 [2], 37 nM | 1.05 | –
E28 [2], 111.1 nM | 2.58 | –
E28 [2], 333.3 nM | 2.63 | –
E28 [2], 1000 nM | 2.85 | –
E28 [2], 3000 nM | 2.36 | –
E28 [9], 4.1 nM | – | 0.971
E28 [9], 12.3 nM | – | 0.855
E28 [9], 37 nM | – | 0.81
E28 [9], 111.1 nM | – | 0.555
E28 [9], 333.3 nM | – | 0.535
E28 [9], 1000 nM | – | 0.453
E28 [9], 3000 nM | – | 0.482
E31 [3], 4.1 nM | 0.87 | –
E31 [3], 12.3 nM | 0.54 | –
E31 [3], 37 nM | 1.16 | –
E31 [3], 111.1 nM | 3.12 | –
E31 [3], 333.3 nM | 2.58 | –
E31 [3], 1000 nM | 3.12 | –
E31 [3], 3000 nM | 2.47 | –
E31 [10], 4.1 nM | – | 0.944
E31 [10], 12.3 nM | – | 0.959
E31 [10], 37 nM | – | 0.697
E31 [10], 111.1 nM | – | 0.423
E31 [10], 333.3 nM | – | 0.404
E31 [10], 1000 nM | – | 0.311
E31 [10], 3000 nM | – | 0.33
E34 [1], 4.1 nM | 1.42 | –
E34 [1], 12.3 nM | 0.649 | –
E34 [1], 37 nM | 0.729 | –
E34 [1], 111.1 nM | 2.85 | –
E34 [1], 333.3 nM | 2.79 | –
E34 [1], 1000 nM | 2.34 | –
E34 [1], 3000 nM | 2.29 | –
E34 [8], 4.1 nM | – | 0.814
E34 [8], 12.3 nM | – | 0.878
E34 [8], 37 nM | – | 0.929
E34 [8], 111.1 nM | – | 0.744
E34 [8], 333.3 nM | – | 0.711
E34 [8], 1000 nM | – | 0.728
E34 [8], 3000 nM | – | 0.722
E57 [5], 4.1 nM | 0.542 | –
E57 [5], 12.3 nM | 0.685 | –
E57 [5], 37 nM | 0.782 | –
E57 [5], 111.1 nM | 4.65 | –
E57 [5], 333.3 nM | 7.94 | –
E57 [5], 1000 nM | 8.6 | –
E57 [5], 3000 nM | 8.14 | –
E57 [12], 4.1 nM | – | 0.966
E57 [12], 12.3 nM | – | 0.942
E57 [12], 37 nM | – | 0.963
E57 [12], 111.1 nM | – | 0.484
E57 [12], 333.3 nM | – | 0.241
E57 [12], 1000 nM | – | 0.19
E57 [12], 3000 nM | – | 0.197
FT3469 [7], 4.1 nM | 0.795 | –
FT3469 [7], 12.3 nM | 0.771 | –
FT3469 [7], 37 nM | 0.921 | –
FT3469 [7], 111.1 nM | 2.37 | –
FT3469 [7], 333.3 nM | 2.57 | –
FT3469 [7], 1000 nM | 2.47 | –
FT3469 [7], 3000 nM | 2.16 | –
FT3469 [14], 4.1 nM | – | 0.899
FT3469 [14], 12.3 nM | – | 0.836
FT3469 [14], 37 nM | – | 0.773
FT3469 [14], 111.1 nM | – | 0.688
FT3469 [14], 333.3 nM | – | 0.737
FT3469 [14], 1000 nM | – | 0.697
FT3469 [14], 3000 nM | – | 0.579
